A short description of data set [1]: Cytotoxicity against human RBC assessed as induction of hemolysis at 5 to 20 uM after 2 hrs by spectrophotometry. It counts as cell-based. As to conditions: erythrocyte.
For data set [2], the system named is Plasmodium falciparum. Briefly: Antiplasmodial activity against Plasmodium falciparum 3D7 assessed as reduction in parasite viability at 6.2 uM after 45 hrs by fluorospectrometry. It counts as functional. As to conditions: 3D7, 45 h.
Data set [3] concerns Plasmodium falciparum. Briefly: Antiplasmodial activity against Plasmodium falciparum 3D7 infected in human RBC assessed as appearance of hemozoin crystals at 10 uM after 1 hrs by light microscopy. It counts as functional, organism-based.
Data set [4] has as its system Plasmodium falciparum. Briefly: Antiplasmodial activity against Plasmodium falciparum 3D7 infected in human RBC assessed as permeabilization of plasma membrane at 10 uM after 20 to 120 min by sytox green dye uptake assay. The format is functional, organism-based.
The test system of data set [5] is Plasmodium falciparum. The experiment in a line: Antiplasmodial activity against Plasmodium falciparum 3D7 infected in human RBC assessed as permeabilization of plasma membrane at > 20 uM after 20 to 120 min by sytox green dye uptake assay. The format is functional, organism-based.
Data set [6] deals with Plasmodium falciparum. The experiment in a line: Antiplasmodial activity against Plasmodium falciparum 3D7 trophozoite infected in human RBC assessed as partial induction of hemolysis at 0.1 to 100 uM after 1 hrs by spectrophotometry in presence of 100 ug/ml annexin V and calcium. It counts as functional, organism-based.
Data set [7] concerns Plasmodium falciparum. The experiment in a line: Antiplasmodial activity against Plasmodium falciparum 3D7 assessed as reduction in parasite viability after 45 hrs by fluorospectrometry. It counts as functional, organism-based.
Data set [8] concerns Plasmodium falciparum. Briefly: Antiplasmodial activity against Plasmodium falciparum 3D7 infected in human RBC assessed as permeabilization of plasma membrane at 5 uM after 20 to 120 min by sytox green dye uptake assay. The format is functional, organism-based.
Data set [9] has as its system Plasmodium falciparum. The experiment in a line: Antiplasmodial activity against Plasmodium falciparum 3D7 trophozoite infected in human RBC assessed as partial induction of hemolysis at 0.1 to 100 uM after 1 hrs by spectrophotometry in presence of > 100 ug/ml annexin V and calcium. The format is functional, organism-based.
The test system of data set [10] is Plasmodium falciparum. The experiment in a line: Antiplasmodial activity against Plasmodium falciparum 3D7 trophozoites infected in human RBC assessed as induction of hemolysis at 10 uM after 90 min by spectrophotometry. It counts as functional, organism-based.
The subject of data set [11] is Plasmodium falciparum. The experiment in a line: Antiplasmodial activity against Plasmodium falciparum 3D7 schizonts infected in human RBC assessed as induction of hemolysis at 5 to 20 uM after 2 hrs by spectrophotometry. It counts as functional, organism-based.
In data set [12] the test system is Plasmodium falciparum. The experiment in a line: Antiplasmodial activity against Plasmodium falciparum 3D7 trophozoites infected in human RBC assessed as induction of hemolysis at 5 to 20 uM after 2 hrs by spectrophotometry. It counts as functional, organism-based.

The values that follow come from ChEMBL document CHEMBL1275415, “The antimicrobial peptide NK-2, the core region of mammalian NK-lysin, kills intraerythrocytic Plasmodium falciparum” (Antimicrob Agents Chemother, 2008).

The source made the active and inactive calls. No cut-off for these calls is given here.

As to H-KILRGVCKKIMRTFLRRISKDILTGKK-OH, in data set [1], the Activity entry is reported as “Non-toxic”. Further, the inhibition at 6.2 µM in the data set with Plasmodium falciparum [2] worked out at 50%. Moreover, the outcome in the data set with Plasmodium falciparum [3], in the data set with Plasmodium falciparum [4], in the data set with Plasmodium falciparum [6], in the data set with Plasmodium falciparum [8], in the data set on Plasmodium falciparum [10] and in the data set with Plasmodium falciparum [11] was Active. For the same substance, the outcome with Plasmodium falciparum [12] was Active. The result with Plasmodium falciparum [5] and in the data set with Plasmodium falciparum [9] was inactive. Also, in the data set on Plasmodium falciparum [7], the inhibition result was “Dose-dependent effect”.

A word on the inhibition: it is how much of the control response was suppressed.
